Experimental data taken from patent US20250122147A1, “ARYL CYCLOHEXANEDIONE DERIVATIVE OR SALT THEREOF, PEST CONTROL AGENT CONTAINING SAME, AND METHOD FOR USE THEREOF” (ADEKA Corporation, priority 2021, published 2025).

Columns and labels:
[1] = system: Frankliniella occidentalis; experiment: Insecticidal test against Frankliniella occidentalis; settings: 500 ppm drug solution sprayed on Phaseolus vulgaris leaf pieces with hatched larvae; four days after treatment
Text: [formula] • assessment criteria.
Female adult Frankliniella occidentalis were inoculated onto Phaseolus vulgaris leaf pieces, and after allowing them to lay eggs for one day, the female adults were removed. […] Four days after the treatment, the number of surviving larvae of this species was examined. […] In duplicate.

[2] = system: Laodelphax striatellus; experiment: Insecticidal test against Laodelphax striatellus; settings: 500 ppm drug solution; rice seedlings immersed 30 seconds; three-instar insects; eight days after inoculation
[3] = system: Plutella xylostella; experiment: Insecticidal test against Plutella xylostella; settings: 500 ppm drug solution; Chinese cabbage seedlings with eggs immersed about 30 sec; six days after immersion; 25° C.
Text: Six days after the immersion in the drug solution, the number of surviving insects was examined. […] In triplicate using 10 per plot.

[4] = system: Dirofilaria immitis; experiment: Influence evaluation test on the growth of Dirofilaria immitis; settings: 168 h, read-out: development inhibition rate from the L3 stage larva to the L4-stage larva

O=C1CC(c2ccc(C(F)(F)F)cc2)CC(O)=C1C(=O)Nc1ccc(OC(F)(F)F)cc1 (stereo not drawn) [1-9]
corrected mortality, rating of assessment [1]: D or higher | corrected mortality, rating of assessment [2]: D or higher | corrected mortality, rating of assessment [3]: D or higher

O=C1CC(c2ccc(C(F)(F)F)cc2)CC(O)=C1C(=O)Nc1nccs1 (stereo not drawn) [1-47, 5-hydroxy-3-oxo-N-(thiazol-2-yl)-4′-(trifluoromethyl)-1,2,3,6-tetrahydro-[1,1′-biphenyl]-4-carboxamide]
inhibition at 10 µM [4]: ≥ 50%

O=C1CC(c2ccc(C(F)(F)F)cc2)CC(O)=C1C(=O)Nc1ccc(F)cn1 (stereo not drawn) [1-48, N-(5-fluoropyridin-2-yl)-5-hydroxy-3-oxo-4′-(trifluoromethyl)-1,2,3,6-tetrahydro-[1,1′-biphenyl]-4-carboxamide]
inhibition at 10 µM [4]: ≥ 50% | corrected mortality, rating of assessment [3]: D or higher

CC1(c2ccc(C(F)(F)F)cc2)CC(=O)C(C(=O)Nc2ccc(F)cc2)=C(O)C1 (stereo not drawn) [1-139]
corrected mortality, rating of assessment [1]: D or higher

O=C1CC(c2ccc(C(F)(F)F)nc2)CC(O)=C1C(=O)Nc1ccc(F)nc1 (stereo not drawn) [1-150]
corrected mortality, rating of assessment [1]: D or higher | corrected mortality, rating of assessment [2]: D or higher

O=C1CC(c2cncs2)CC(O)=C1C(=O)Nc1ccc(F)cc1 (stereo not drawn) [1-152]
corrected mortality, rating of assessment [2]: D or higher | corrected mortality, rating of assessment [3]: D or higher

O=C1CC(c2ccc(Br)cn2)CC(O)=C1C(=O)Nc1ccc(F)cc1 (stereo not drawn) [1-161]
corrected mortality, rating of assessment [2]: D or higher | corrected mortality, rating of assessment [3]: D or higher

C[S+]([O-])c1ccc(C2CC(=O)C(C(=O)Nc3ccc(F)cn3)=C(O)C2)cc1 (stereo not drawn) [1-164]
corrected mortality, rating of assessment [2]: D or higher | corrected mortality, rating of assessment [3]: D or higher

O=C1CC(c2ccc(C(F)(F)F)cc2)CC(SCc2ccccc2)=C1C(=O)Nc1ccc(F)cc1 (stereo not drawn) [1-225]
corrected mortality, rating of assessment [2]: D or higher | corrected mortality, rating of assessment [3]: D or higher

CONC1=C(C(=O)Nc2ccc(F)cc2)C(=O)CC(c2ccc(C(F)(F)F)cc2)C1 (stereo not drawn) [1-227, N-(4-fluorophenyl)-5-(methoxyamino)-3-oxo-4′-(trifluoromethyl)-1,2,3,6-tetrahydro-[1,1′-biphenyl]-4-carboxamide]
inhibition at 10 µM [4]: ≥ 50%
